Values of other authors in patent US20150258192A1, “COMPOSITIONS AND METHODS FOR PREVENTING OR TREATING CHRONIC LUNG ALLOGRAFT DYSFUNCTION (CLAD) AND IDIOPATHIC PULMONARY FIBROSIS (IPF)” (priority 2014, published 2015).
pIC50: −log10 of the molar value.

Legend:
[1] = system: Ca^2+/calmodulin-dependent protein kinase II (CaMKII); settings: cited from earlier work
CaMKIV = CaMKIV (Homo sapiens, UniProt Q16566); settings: 1 μM; cited from earlier work
PKC = settings: 1 μM; cited from earlier work
PKA = settings: 1 μM; cited from earlier work

Chain of CaMKIV (Q16566 whole entry, species assumed): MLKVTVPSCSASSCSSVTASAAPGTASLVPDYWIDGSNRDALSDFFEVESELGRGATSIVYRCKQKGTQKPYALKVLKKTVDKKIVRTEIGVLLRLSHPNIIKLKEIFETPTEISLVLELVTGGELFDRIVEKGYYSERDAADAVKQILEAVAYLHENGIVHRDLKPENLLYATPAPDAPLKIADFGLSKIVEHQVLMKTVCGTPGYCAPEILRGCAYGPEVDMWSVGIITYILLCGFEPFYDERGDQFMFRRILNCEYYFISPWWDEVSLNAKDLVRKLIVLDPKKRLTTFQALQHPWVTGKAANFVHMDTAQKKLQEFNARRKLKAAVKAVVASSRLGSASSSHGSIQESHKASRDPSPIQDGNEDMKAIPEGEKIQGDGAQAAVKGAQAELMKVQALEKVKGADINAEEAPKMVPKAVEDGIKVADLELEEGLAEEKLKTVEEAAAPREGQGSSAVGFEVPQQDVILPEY

## autocamtide-2 related inhibitory peptide [AIP]
[1]; 1 μM
  CaMKII activity: inhibited completely
[1]
  pIC50: 7.00
CaMKIV
  CaMKIV activity: not affected
PKC
  PKC activity: not affected
PKA
  PKA activity: not affected
